Data taken from PubChem BioAssay (NCI).
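Following 48 hours of exposure in 96-well plates, responses at five concentrations were used to interpolate endpoints linearly. GI50 = concentration required for 50% inhibition of growth. The concentration for full growth arrest is given as TGI.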

How the values were obtained:
Experiment in all cases: NCI tumour cell line growth inhibition, 48 h
HS 578T breast = system: HS 578T breast
SW-620 colon = system: SW-620 colon
PC-3 prostate = system: PC-3 prostate
HT29 colon = system: HT29 colon
UO-31 renal = system: UO-31 renal
SF-539 CNS = system: SF-539 CNS
IGROV1 ovarian = system: IGROV1 ovarian
COLO 205 colon = system: COLO 205 colon
HOP-92 NSCLC = system: HOP-92 NSCLC
M14 melanoma = system: M14 melanoma
CAKI-1 renal = system: CAKI-1 renal
OVCAR-3 ovarian = system: OVCAR-3 ovarian
SK-MEL-28 melanoma = system: SK-MEL-28 melanoma
CCRF-CEM leukemia = system: CCRF-CEM leukemia
HOP-62 NSCLC = system: HOP-62 NSCLC
OVCAR-8 ovarian = system: OVCAR-8 ovarian
HCC-2998 colon = system: HCC-2998 colon
HL-60(TB) leukemia = system: HL-60(TB) leukemia
UACC-62 melanoma = system: UACC-62 melanoma
A549 NSCLC = system: A549 NSCLC
SK-OV-3 ovarian = system: SK-OV-3 ovarian
EKVX NSCLC = system: EKVX NSCLC
NCI-H460 lung = system: NCI-H460 lung
MDA-N = system: MDA-N
SF-295 CNS = system: SF-295 CNS
OVCAR-5 ovarian = system: OVCAR-5 ovarian
MALME-3M melanoma = system: MALME-3M melanoma
SF-268 CNS = system: SF-268 CNS
SK-MEL-2 melanoma = system: SK-MEL-2 melanoma
LOX IMVI melanoma = system: LOX IMVI melanoma
RPMI-8226 leukemia = system: RPMI-8226 leukemia
SNB-19 CNS = system: SNB-19 CNS
KM12 colon = system: KM12 colon
MOLT-4 leukemia = system: MOLT-4 leukemia
K-562 leukemia = system: K-562 leukemia
T-47D breast = system: T-47D breast
SR leukemia = system: SR leukemia
NCI-H522 lung = system: NCI-H522 lung
MDA-MB-435 = system: MDA-MB-435
786-0 renal = system: 786-0 renal
NCI-H23 lung = system: NCI-H23 lung
UACC-257 melanoma = system: UACC-257 melanoma
TK-10 renal = system: TK-10 renal
NCI/ADR-RES ovarian = system: NCI/ADR-RES ovarian
HCT-15 colon = system: HCT-15 colon
ACHN renal = system: ACHN renal
HCT-116 colon = system: HCT-116 colon
SNB-75 CNS = system: SNB-75 CNS
MDA-MB-231 breast = system: MDA-MB-231 breast
U251 CNS = system: U251 CNS
SN12C renal = system: SN12C renal
SK-MEL-5 melanoma = system: SK-MEL-5 melanoma
MCF7 breast = system: MCF7 breast
DU-145 prostate = system: DU-145 prostate
RXF 393 renal = system: RXF 393 renal
NCI-H226 lung = system: NCI-H226 lung
BT-549 breast = system: BT-549 breast
A498 renal = system: A498 renal
OVCAR-4 ovarian = system: OVCAR-4 ovarian

Structure (SMILES): COc1c(C(=O)/C(=N/Nc2cccc(Cl)c2)C(C)=O)c(O)c(OC)c2occc12
- TGI (HS 578T breast): > 100 µM
- TGI (SW-620 colon): > 100 µM
- TGI (PC-3 prostate): > 100 µM
- TGI (HT29 colon): > 100 µM
- TGI (UO-31 renal): > 100 µM
- TGI (SF-539 CNS): > 100 µM
- TGI (IGROV1 ovarian): > 100 µM
- TGI (COLO 205 colon): > 100 µM
- TGI (HOP-92 NSCLC): > 100 µM
- TGI (M14 melanoma): > 100 µM
- TGI (CAKI-1 renal): > 100 µM
- TGI (OVCAR-3 ovarian): > 100 µM
- TGI (SK-MEL-28 melanoma): > 100 µM
- TGI (CCRF-CEM leukemia): > 100 µM
- TGI (HOP-62 NSCLC): > 100 µM
- TGI (OVCAR-8 ovarian): > 100 µM
- TGI (HCC-2998 colon): > 100 µM
- TGI (HL-60(TB) leukemia): > 100 µM
- TGI (UACC-62 melanoma): > 100 µM
- TGI (A549 NSCLC): > 100 µM
- TGI (SK-OV-3 ovarian): > 100 µM
- TGI (EKVX NSCLC): > 100 µM
- TGI (NCI-H460 lung): > 100 µM
- TGI (MDA-N): > 100 µM
- TGI (SF-295 CNS): > 100 µM
- TGI (OVCAR-5 ovarian): > 100 µM
- TGI (MALME-3M melanoma): > 100 µM
- TGI (SF-268 CNS): > 100 µM
- TGI (SK-MEL-2 melanoma): > 100 µM
- TGI (LOX IMVI melanoma): > 100 µM
- TGI (RPMI-8226 leukemia): > 100 µM
- TGI (SNB-19 CNS): > 100 µM
- TGI (KM12 colon): > 100 µM
- TGI (MOLT-4 leukemia): > 100 µM
- TGI (K-562 leukemia): > 100 µM
- TGI (T-47D breast): 88.9 µM
- TGI (SR leukemia): > 100 µM
- TGI (NCI-H522 lung): > 100 µM
- TGI (MDA-MB-435): > 100 µM
- TGI (786-0 renal): > 100 µM
- TGI (NCI-H23 lung): > 100 µM
- TGI (UACC-257 melanoma): > 100 µM
- TGI (TK-10 renal): > 100 µM
- TGI (NCI/ADR-RES ovarian): > 100 µM
- TGI (HCT-15 colon): > 100 µM
- TGI (ACHN renal): > 100 µM
- TGI (HCT-116 colon): > 100 µM
- TGI (SNB-75 CNS): > 100 µM
- TGI (MDA-MB-231 breast): > 100 µM
- TGI (U251 CNS): > 100 µM
- TGI (SN12C renal): > 100 µM
- TGI (SK-MEL-5 melanoma): > 100 µM
- TGI (MCF7 breast): > 100 µM
- TGI (DU-145 prostate): > 100 µM
- TGI (RXF 393 renal): > 100 µM
- TGI (NCI-H226 lung): > 100 µM

Structure (SMILES): O=C(/C=C/c1ccccc1)Nc1ncc(Cc2ccccc2)s1
- GI50 (HS 578T breast): 0.287 µM
- TGI (HS 578T breast): 20.8 µM
- GI50 (SW-620 colon): 0.144 µM
- TGI (SW-620 colon): > 100 µM
- GI50 (PC-3 prostate): 0.275 µM
- TGI (PC-3 prostate): > 100 µM
- GI50 (HT29 colon): 0.138 µM
- TGI (HT29 colon): > 32.8 µM
- GI50 (UO-31 renal): 0.463 µM
- TGI (UO-31 renal): 23.3 µM
- GI50 (SF-539 CNS): 0.206 µM
- TGI (SF-539 CNS): 0.732 µM
- GI50 (IGROV1 ovarian): 0.491 µM
- TGI (IGROV1 ovarian): > 64.5 µM
- GI50 (COLO 205 colon): 0.288 µM
- TGI (COLO 205 colon): 2.13 µM
- GI50 (HOP-92 NSCLC): 4.72 µM
- TGI (HOP-92 NSCLC): > 84.8 µM
- GI50 (M14 melanoma): 0.114 µM
- TGI (M14 melanoma): 3.03 µM
- GI50 (CAKI-1 renal): 0.0902 µM
- TGI (CAKI-1 renal): > 50.2 µM
- GI50 (OVCAR-3 ovarian): 0.258 µM
- TGI (OVCAR-3 ovarian): 1.44 µM
- GI50 (SK-MEL-28 melanoma): 1.7 µM
- TGI (SK-MEL-28 melanoma): > 100 µM
- GI50 (CCRF-CEM leukemia): 0.194 µM
- TGI (CCRF-CEM leukemia): > 80.8 µM
- GI50 (HOP-62 NSCLC): 0.398 µM
- TGI (HOP-62 NSCLC): > 39 µM
- GI50 (OVCAR-8 ovarian): 0.488 µM
- TGI (OVCAR-8 ovarian): > 40.9 µM
- GI50 (HCC-2998 colon): 0.303 µM
- TGI (HCC-2998 colon): 3.42 µM
- GI50 (HL-60(TB) leukemia): 0.212 µM
- TGI (HL-60(TB) leukemia): 0.609 µM
- GI50 (UACC-62 melanoma): 0.125 µM
- TGI (UACC-62 melanoma): 4.28 µM
- GI50 (A549 NSCLC): 0.322 µM
- TGI (A549 NSCLC): > 55.1 µM
- GI50 (SK-OV-3 ovarian): 0.458 µM
- TGI (SK-OV-3 ovarian): 6.24 µM
- GI50 (EKVX NSCLC): 0.44 µM
- TGI (EKVX NSCLC): > 100 µM
- GI50 (NCI-H460 lung): 0.289 µM
- TGI (NCI-H460 lung): 5.01 µM
- GI50 (SF-295 CNS): 0.202 µM
- TGI (SF-295 CNS): 1.96 µM
- GI50 (OVCAR-5 ovarian): 0.469 µM
- TGI (OVCAR-5 ovarian): 35.8 µM
- GI50 (MALME-3M melanoma): 1.08 µM
- TGI (MALME-3M melanoma): > 100 µM
- GI50 (SF-268 CNS): 0.963 µM
- TGI (SF-268 CNS): > 100 µM
- GI50 (SK-MEL-2 melanoma): 0.479 µM
- TGI (SK-MEL-2 melanoma): > 69.1 µM
- GI50 (LOX IMVI melanoma): 0.139 µM
- TGI (LOX IMVI melanoma): > 23.2 µM
- GI50 (RPMI-8226 leukemia): 0.309 µM
- TGI (RPMI-8226 leukemia): > 28 µM
- GI50 (SNB-19 CNS): 0.392 µM
- TGI (SNB-19 CNS): > 52.3 µM
- GI50 (KM12 colon): 0.149 µM
- TGI (KM12 colon): 13 µM
- GI50 (MOLT-4 leukemia): 0.345 µM
- TGI (MOLT-4 leukemia): > 100 µM
- GI50 (K-562 leukemia): 0.0624 µM
- TGI (K-562 leukemia): > 37.1 µM
- GI50 (T-47D breast): 0.413 µM
- TGI (T-47D breast): > 100 µM
- GI50 (SR leukemia): 0.0501 µM
- TGI (SR leukemia): 10.2 µM
- GI50 (NCI-H522 lung): 0.112 µM
- TGI (NCI-H522 lung): 3.83 µM
- GI50 (MDA-MB-435): 0.0286 µM
- TGI (MDA-MB-435): 0.1 µM
- GI50 (786-0 renal): 0.598 µM
- TGI (786-0 renal): 10.7 µM
- GI50 (NCI-H23 lung): 0.562 µM
- TGI (NCI-H23 lung): > 49.1 µM
- GI50 (UACC-257 melanoma): 10.7 µM
- TGI (UACC-257 melanoma): > 100 µM
- GI50 (BT-549 breast): 1.17 µM
- TGI (BT-549 breast): > 100 µM
- GI50 (TK-10 renal): 1.34 µM
- TGI (TK-10 renal): > 46.4 µM
- GI50 (NCI/ADR-RES ovarian): 0.178 µM
- TGI (NCI/ADR-RES ovarian): 5.5 µM
- GI50 (HCT-15 colon): 0.066 µM
- TGI (HCT-15 colon): > 100 µM
- GI50 (ACHN renal): 0.4 µM
- TGI (ACHN renal): 31.4 µM
- GI50 (HCT-116 colon): 0.141 µM
- TGI (HCT-116 colon): > 33.4 µM
- GI50 (SNB-75 CNS): 0.138 µM
- TGI (SNB-75 CNS): 1.99 µM
- GI50 (MDA-MB-231 breast): 0.415 µM
- TGI (MDA-MB-231 breast): 9.28 µM
- GI50 (A498 renal): 0.24 µM
- TGI (A498 renal): 3.39 µM
- GI50 (U251 CNS): 0.271 µM
- TGI (U251 CNS): 6.25 µM
- GI50 (SN12C renal): 0.597 µM
- TGI (SN12C renal): > 52 µM
- GI50 (SK-MEL-5 melanoma): 0.196 µM
- TGI (SK-MEL-5 melanoma): 10.1 µM
- GI50 (OVCAR-4 ovarian): 1.38 µM
- TGI (OVCAR-4 ovarian): 6.54 µM
- GI50 (MCF7 breast): 0.139 µM
- TGI (MCF7 breast): > 100 µM
- GI50 (DU-145 prostate): 0.396 µM
- TGI (DU-145 prostate): > 100 µM
- GI50 (RXF 393 renal): 0.267 µM
- TGI (RXF 393 renal): 1.59 µM
- GI50 (NCI-H226 lung): 1.16 µM
- TGI (NCI-H226 lung): > 20.8 µM
